Patent US10028931B2, “Synergistic compositions for treating microbial infections” (UNIVERSITY OF ROCHESTER, priority 2014, dated 2018)
Values after ≈ are worked out from the molar mass of the structure shown. Read-outs that look alike come from different tables or passages of the source.

Experiments:
[1] = system: Staphylococcus aureus strain UAMS-1; assay: Antimicrobial susceptibility testing (MIC, broth microdilution); format: cell-based; details: Staphylococcus aureus, S. aureus UAMS-1, Mueller Hinton broth, 37° C., read-out: MIC
Description: The RNase P inhibitors described herein were tested for antimicrobial activity toward Staphylococcus aureus strain UAMS-1. Individual wells of a 96-well microtiter plate were inoculated with ˜1×10^5 colony-forming units (CFU) of the indicated organism, containing two-fold increasing concentrations (from 0 to 256 μg mL^−1) of the indicated antibiotic or putative RnpA inhibitor, and incubated at 37° C. for 18 hours in Mueller Hinton broth. The MIC was defined as the lowest concentration of antibiotic in which there was no visible bacterial growth in the wells. Minimum bactericidal concentration testing was performed by enumerating the bacterial cells in each of the wells containing treatments at and above the MIC.

[2] = target: T1, RnpA (Staphylococcus aureus, UniProt P0A0H5); assay: RnpA mRNA degradation activity assay; format: biochemical
T1 sequence (P0A0H5 1-117): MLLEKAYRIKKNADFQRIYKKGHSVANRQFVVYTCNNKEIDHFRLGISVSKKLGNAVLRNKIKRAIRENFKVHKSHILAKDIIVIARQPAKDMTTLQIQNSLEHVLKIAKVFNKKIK
Description: The RNase P inhibitors described herein were tested for activity toward RnpA mRNA degradation activity. Either 1 μg of total S. aureus RNA or 1 pmol of in vitro synthesized spa mRNA was incubated with 20 pmol RnpA at 37° C. for 15 to 30 min in a reaction buffer (50 mM Tris-HCl pH 8.0, 2 mM NaCl, 2 mM MgCl2) in the absence or presence of the indicated compound. Reactions were stopped by adding an equal volume of 2×RNA loading dye (95% formamide, 0.025% SDS, 0.025% bromophenol blue, 0.025% xylene cyanol FF, 0.5 mM EDTA), run on a denaturing 1.0% agarose-0.66 M formaldehyde gel and stained with ethidium bromide. RNA substrates and corresponding degradation products were visualized using a FluorChem 5500 system (Alpha Innotech; San Leandro, Calif.). The inhibitory effects of the test compounds were measured using Image J densitometry software (National Institutes of Health; Bethesda, Md.) to quantify the signal intensity of the RNA band(s) in the negative control (RNA alone), positive control (RnpA+RNA+DMSO), and experimental samples (RnpA+RNA+test compound). The percent enzyme inhibition of test compounds was calculated using the following equation: Percent inhibition=[(experimental signal-positive control)/(negative control signal-positive control signal)]*100.

[3] = target: T2, S. aureus RNase P (RnpA+rnpB) (Staphylococcus aureus, UniProt P0A0H5); assay: RNase P activity assay (precursor tRNA processing); format: biochemical; details: gel densitometry
T2 sequence (P0A0H5 1-117): T1 sequence (P0A0H5 1-117)
Description: The RNase P inhibitors described herein were tested for activity toward RNase P. S. aureus RNase P activity assays were performed in low salt buffer (50 mM Tris-HCl pH 8.0, 5 mM MgCl2) or in high salt buffer (50 mM Tris-HCl pH 8.0, 100 mM MgCl2, 800 mM NH4Cl). For all reactions, ptRNATyr, tRNATyr, or rnpB RNA species were first denatured by heating to 95° C. for 3 minutes, and then slowly cooling the mixtures to room temperature. RNase P was reconstituted by mixing an equal molar ratio of RnpB and RnpA for 15 min at 37° C. Precursor tRNA processing reactions (20 μL) were performed by mixing 1.25 pmol RNase P (RnpA+rnpB), RnpA, or rnpB with an equal volume of 2× low salt buffer or 2× high salt buffer and 10 pmol ptRNATyr. Mixtures were incubated for 15 min at 37° C. Reactions were stopped by adding 20 μL 2×RNA loading dye (95% formamide, 0.025% SDS, 0.025% bromophenol blue, 0.025% xylene cyanol FF, 0.5 mM EDTA), and 30 μL of each sample was electrophoresed in a 7 M urea/8% polyacrylamide gel and was then stained with ethidium bromide (0.5 μg/ml). Where indicated, reactions were repeated in the presence of the indicated amount of putative RnpA inhibitors or dimethyl sulfoxide (DMSO). A FluorChem 5500 imaging system was used to visualize the RNA, and the relative abundance of the mature tRNATyr band in the positive control (RNase P+DMSO) or in samples containing test compounds was measured using Image J densitometry software (NIH). The percent RNase P activity was then calculated using the following calculation: (test compound tRNATyr signal/positive control tRNATyr signal)*100.

[4] = RnpA mRNA degradation, gel densitometry, read-out: RnpA IC50
[5] = ptRNATyr processing, read-out: RNase P IC50

Row | SMILES | MIC ([1]; UAMS1, 18 h) | IC50 [2, 4] | IC50 [3, 5] | MIC ([1]; UAMS1, 18 hours) | IC50 [2] | IC50 ([3]; RNase P IC50, ptRNATyr processing)
1 | O=C(NNC(=S)NC(=O)c1ccco1)c1ccncc1 [ST4145527] | > 128 µg/mL | > 500 µM | > 500 µM | – | – | –
2 | COc1ccc(C(=O)NNC(=S)NC(=O)c2ccco2)cc1 [ST5254069] | 16 µg/mL (≈ 50.1 µM) | > 500 µM | > 500 µM | – | – | –
3 | O=C(NNC(=S)NC(=O)c1ccco1)c1cccnc1 [ST5254078] | 128 µg/mL (≈ 441 µM) | > 500 µM | > 500 µM | – | – | –
4 | O=C(/C=C/c1ccccc1)NC(=S)NNC(=O)c1ccco1 [ST5254083] | 16 µg/mL (≈ 50.7 µM) | 90 µM | 75 µM | – | – | –
5 | O=C(NC(=S)NNC(=O)c1ccco1)c1cccnc1 [ST5254088] | > 128 µg/mL | – | > 500 µM | – | – | –
6 | COc1ccc(C(=O)NC(=S)NNC(=O)c2ccco2)cc1 [ST5254089] | 64 µg/mL (≈ 200 µM) | > 500 µM | 180 µM | – | – | –
7 | Cc1ccc(OCC(=O)NNC(=S)NC(=O)COc2ccccc2)cc1 [ST5521633] | 16 µg/mL (≈ 42.8 µM) | – | 155 µM | – | – | –
8 | Cc1ccccc1C(=O)NNC(=S)NC(=O)COc1ccccc1 [ST5521953] | 32 µg/mL (≈ 93.2 µM) | > 500 µM | > 500 µM | – | – | –
9 | COc1ccc(OCC(=O)NNC(=S)NC(=O)c2ccc(Br)o2)cc1 [ST5523216] | 32 µg/mL (≈ 74.7 µM) | > 500 µM | 425 µM | – | – | –
10 | Cc1cc(Cl)ccc1OCC(=O)NNC(=S)NC(=O)/C=C/c1ccco1 [ST5524187] | 32 µg/mL (≈ 81.2 µM) | 175 µM | 65 µM | – | – | –
11 | O=C(NNC(=S)NC(=O)c1ccco1)c1ccc(NC(=O)c2ccccc2)cc1 [ST5524510] | > 128 µg/mL | – | > 500 µM | – | – | –
12 | Cc1ccccc1OCC(=O)NNC(=S)NC(=O)/C=C/c1ccco1 [ST5524973] | 32 µg/mL (≈ 89 µM) | 220 µM | 80 µM | – | – | –
13 | CC(C)(C)c1ccc(C(=O)Nc2ccc(C(=O)NNC(=S)NC(=O)c3ccco3)cc2)cc1 [ST5524997] | 32 µg/mL (≈ 68.9 µM) | 300 µM | 70 µM | – | – | –
14 | CCC(C)c1ccc(OCC(=O)NNC(=S)NC(=O)C2CCCCC2)cc1 (stereo not drawn) [ST5525281] | – | 275 µM | 125 µM | – | – | –
15 | CCC(C)c1ccc(OCC(=O)NNC(=S)NC(=O)c2ccc(-c3ccccc3)cc2)cc1 (stereo not drawn) [ST5525289] | 64 µg/mL (≈ 139 µM) | 40 µM | > 500 µM | – | – | –
16 | COc1ccccc1C(=O)NNC(=S)NC(=O)c1ccco1 [ST5525332] | – | – | – | 8 µg/mL (≈ 25.1 µM) | > 500 µM | > 500 µM
17 | CC(C)C(=O)Nc1ccc(C(=O)NNC(=S)NC(=O)c2ccco2)cc1 [ST5525955] | > 128 µg/mL | > 500 µM | 145 µM | – | – | –
18 | CCCCC(=O)Nc1ccc(C(=O)NNC(=S)NC(=O)c2ccco2)cc1 [ST5526667] | > 128 µg/mL | 80 µM | 90 µM | – | – | –
19 | O=C(CNC(=O)C1CCCCC1)NNC(=S)NC(=O)c1ccco1 [ST5526682] | > 128 µg/mL | > 500 µM | 200 µM | – | – | –
20 | CCOc1ccc(C(=O)NC(=S)NNC(=O)COc2ccc(C(C)CC)cc2)cc1 (stereo not drawn) [ST5528171] | 64 µg/mL (≈ 149 µM) | > 500 µM | 280 µM | – | – | –
21 | COCCOC(=O)CCC(=O)NC(=S)NNC(=O)COc1ccc(C(C)C)cc1 [ST5528839] | > 128 µg/mL | – | > 500 µM | – | – | –
22 | CCCCCCCC(=O)NC(=S)NNC(=O)COc1ccc(C(C)CC)cc1 (stereo not drawn) [ST5528863] | > 128 µg/mL | > 500 µM | 490 µM | – | – | –
23 | CC(C)COc1ccc(C(=O)NNC(=S)NC(=O)c2ccco2)cc1 [ST5529685] | 64 µg/mL (≈ 177 µM) | > 500 µM | > 500 µM | – | – | –
24 | CC(C)CNC(=S)NNC(=O)c1ccc(COc2ccc(C(C)(C)C)cc2)o1 [ST5607017] | > 128 µg/mL | 70 µM | > 500 µM | – | – | –
25 | O=C(Cc1ccccc1)NNC(=S)NC(=O)c1ccco1 [ST5682126] | > 128 µg/mL | – | > 500 µM | – | – | –
